Results reported in the supplement of paper PMC10627819.

Legend:
S. pneumoniae D39V [1] = test: Bliss interaction score (quartile over a dose matrix) (fitness difference); higher = more antagonism (negative = synergy)
How it was run: (§1)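 Each OD595 reading at entry into stationary phase was scaled to the robust mean of the untreated wells on its plate, with a ceiling of 1. These ratios define fitness, and single-drug fitness was inferred from combinations. The Bliss score compares observed fitness with the product-based expectation and is reported as quartiles across all replicate types, technical, biological and donor/recipient.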

S. aureus Newman [2] = test: as above
How it was run: as §1

S. aureus DSM 20231 [3] = test: as above
How it was run: as §1

B. subtilis 168 = test: as above
How it was run: as §1

S. pneumoniae D39V [4] = test: fitness (endpoint OD595 vs no drug) (fraction); higher = more growth
How it was run: (§2)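 Fitness compares growth at the stationary-phase transition with the robust mean of no-drug control wells, as a ratio of optical densities. The ratio is capped at 1. Wells of 384-well plates held 30 µl, or 55 µl for S. pneumoniae, inoculated at OD595 0.01. Readings at OD595 every 30 min for 14 h at 37 °C were corrected against the first reading.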

S. aureus Newman [5] = test: as above
How it was run: as §2

S. aureus DSM 20231 [6] = test: as above
How it was run: as §2
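Throughout, for Bliss interaction score (quartile over a dose matrix): first quartile when negative (synergy) and third quartile when positive (antagonism).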
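Throughout, for fitness (endpoint OD595 vs no drug): OD595 on entry to stationary phase over no-drug wells; at most 1.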

CCN(CC)CCOC(=O)c1ccc(N)cc1 [Procaine] + CN[C@H](CC(C)C)C(=O)N[C@H]1C(=O)N[C@@H](CC(N)=O)C(=O)N[C@H]2C(=O)N[C@H]3C(=O)N[C@H](C(=O)N[C@H](C(=O)O)c4cc(O)cc(O)c4-c4cc3ccc4O)[C@H](O)c3ccc(c(Cl)c3)Oc3cc2cc(c3O[C@@H]2O[C@H](CO)[C@@H](O)[C@H](O)[C@H]2O[C@H]2C[C@](C)(N)[C@H](O)[C@H](C)O2)Oc2ccc(cc2Cl)[C@H]1O [Vancomycin]
Details	Bliss interaction score
B. subtilis 168	0.0237
S. aureus DSM 20231 [3]	0.0492
S. aureus Newman [2]	0.0558
S. pneumoniae D39V [1]	-0.0761

fitness
Details	partner 0.03125 µg/mL	partner 0.0625 µg/mL	partner 0.125 µg/mL	partner 0.1875 µg/mL	partner 0.375 µg/mL	partner 0.75 µg/mL
S. aureus DSM 20231 [6], first compound 85.5 µg/mL	–	–	–	0.969	0.999	0.953
S. aureus DSM 20231 [6], first compound 171 µg/mL	–	–	–	0.953	≥ 1	0.982
S. aureus DSM 20231 [6], first compound 342 µg/mL	–	–	–	0.883	0.983	≥ 1
S. aureus Newman [5], first compound 342 µg/mL	–	–	–	0.962	0.999	0.98
S. pneumoniae D39V [4], first compound 85.5 µg/mL	≥ 1	0.963	0.742	–	–	–
S. pneumoniae D39V [4], first compound 171 µg/mL	0.978	0.955	0.903	–	–	–
S. pneumoniae D39V [4], first compound 342 µg/mL	0.952	0.921	0.907	–	–	–

fitness, S. pneumoniae D39V [4], one replicate
Details	first compound 85.5 µg/mL	first compound 171 µg/mL	first compound 342 µg/mL
partner 0.25 µg/mL	0.0963	0.383	0.674
partner 0.5 µg/mL	0.0592	0.0925	0.148

CCN(CC)CCOC(=O)c1ccc(N)cc1 [Procaine] + Cn1nnc(-c2ccc(-c3ccc(N4C[C@H](CO)OC4=O)cc3F)cn2)n1 [Tedizolid]
Details	Bliss interaction score
B. subtilis 168	-0.0545
S. aureus DSM 20231 [3]	-0.0772
S. aureus Newman [2]	0.0692
S. pneumoniae D39V [1]	-0.0797

fitness
Details	first compound 85.5 µg/mL	first compound 171 µg/mL	first compound 342 µg/mL
S. aureus DSM 20231 [6], partner 0.0625 µg/mL	0.789	0.887	0.81
S. aureus DSM 20231 [6], partner 0.25 µg/mL	0.067	0.0661	0.0739
S. aureus Newman [5], partner 0.0625 µg/mL	≥ 1	0.972	0.972
S. aureus Newman [5], partner 0.125 µg/mL	0.969	0.939	0.951
S. pneumoniae D39V [4], partner 0.03125 µg/mL	0.989	0.975	0.97
S. pneumoniae D39V [4], partner 0.0625 µg/mL	0.954	0.943	0.973
S. pneumoniae D39V [4], partner 0.125 µg/mL	0.803	0.862	0.796

fitness, S. pneumoniae D39V [4], one replicate
Details	first compound 85.5 µg/mL	first compound 171 µg/mL	first compound 342 µg/mL
partner 0.25 µg/mL	0.67	0.744	0.695
partner 0.5 µg/mL	0.282	0.311	0.353

Cn1nnc(-c2ccc(-c3ccc(N4C[C@H](CO)OC4=O)cc3F)cn2)n1 [Tedizolid] + CC1=C\[C@@H](O)CC(=O)Cc2nc(co2)C(=O)N2CCC=C2C(=O)O[C@H](C(C)C)[C@H](C)/C=C/C(=O)NC\C=C\1 [Virginiamycin M1]
Details	Bliss interaction score
B. subtilis 168	-0.0674
S. aureus DSM 20231 [3]	-0.078
S. aureus Newman [2]	0.0611
S. pneumoniae D39V [1]	0.103

fitness
Details	first compound 0.03125 µg/mL	first compound 0.0625 µg/mL	first compound 0.125 µg/mL	first compound 0.25 µg/mL	first compound 0.5 µg/mL
S. aureus DSM 20231 [6], partner 0.0625 µg/mL	–	0.839	0.579	0.194	–
S. aureus DSM 20231 [6], partner 0.125 µg/mL	–	0.889	0.542	0.212	–
S. aureus DSM 20231 [6], partner 0.25 µg/mL	–	0.888	–	0.102	–
S. aureus Newman [5], partner 0.0625 µg/mL	–	0.965	0.814	–	–
S. aureus Newman [5], partner 0.125 µg/mL	–	0.97	0.823	–	–
S. aureus Newman [5], partner 0.25 µg/mL	–	0.997	0.843	–	–
S. pneumoniae D39V [4], partner 0.5 µg/mL	0.972	0.962	0.807	–	–
S. pneumoniae D39V [4], partner 1 µg/mL	0.978	0.973	0.807	–	–
S. pneumoniae D39V [4], partner 2 µg/mL	0.955	0.948	0.824	0.785	0.607

fitness, one replicate
Details	first compound 0.0625 µg/mL	first compound 0.125 µg/mL	first compound 0.25 µg/mL	first compound 0.5 µg/mL
S. aureus DSM 20231 [6], partner 0.5 µg/mL	0.676	0.31	0.0481	–
S. aureus DSM 20231 [6], partner 1 µg/mL	0.681	0.327	0.0496	–
S. aureus Newman [5], partner 0.5 µg/mL	0.885	0.91	0.57	–
S. aureus Newman [5], partner 1 µg/mL	0.956	0.956	0.565	–
S. aureus Newman [5], partner 2 µg/mL	0.851	0.785	0.456	–
S. pneumoniae D39V [4], partner 0.15 µg/mL	–	0.905	0.835	0.534
S. pneumoniae D39V [4], partner 0.3 µg/mL	–	0.892	0.818	0.505
S. pneumoniae D39V [4], partner 0.5 µg/mL	–	–	0.838	0.659
S. pneumoniae D39V [4], partner 1 µg/mL	–	–	0.771	0.523

Cn1nnc(-c2ccc(-c3ccc(N4C[C@H](CO)OC4=O)cc3F)cn2)n1 [Tedizolid] + CN[C@H](CC(C)C)C(=O)N[C@H]1C(=O)N[C@@H](CC(N)=O)C(=O)N[C@H]2C(=O)N[C@H]3C(=O)N[C@H](C(=O)N[C@H](C(=O)O)c4cc(O)cc(O)c4-c4cc3ccc4O)[C@H](O)c3ccc(c(Cl)c3)Oc3cc2cc(c3O[C@@H]2O[C@H](CO)[C@@H](O)[C@H](O)[C@H]2O[C@H]2C[C@](C)(N)[C@H](O)[C@H](C)O2)Oc2ccc(cc2Cl)[C@H]1O [Vancomycin]
Details	Bliss interaction score
B. subtilis 168	0.0605
S. aureus DSM 20231 [3]	-0.0656
S. aureus Newman [2]	0.046
S. pneumoniae D39V [1]	0.107

fitness
Details	first compound 0.03125 µg/mL	first compound 0.0625 µg/mL	first compound 0.125 µg/mL	first compound 0.25 µg/mL	first compound 0.5 µg/mL
S. aureus DSM 20231 [6], partner 0.1875 µg/mL	–	0.89	0.754	0.348	–
S. aureus DSM 20231 [6], partner 0.375 µg/mL	–	0.891	0.723	0.377	–
S. aureus DSM 20231 [6], partner 0.75 µg/mL	–	0.924	0.867	0.397	–
S. aureus Newman [5], partner 0.1875 µg/mL	–	0.977	0.87	–	–
S. aureus Newman [5], partner 0.375 µg/mL	–	0.966	0.845	–	–
S. aureus Newman [5], partner 0.75 µg/mL	–	0.939	0.824	–	–
S. pneumoniae D39V [4], partner 0.03125 µg/mL	–	–	0.809	0.73	0.482
S. pneumoniae D39V [4], partner 0.0625 µg/mL	–	–	0.819	0.718	0.473
S. pneumoniae D39V [4], partner 0.125 µg/mL	0.976	0.968	0.833	–	–
